Assay in all cases: cAMP accumulation
Type in all cases: cell-based
Holding throughout (conditions): cAMP maximal response, mean ± S.E.M., SEM

One assay deals with T1, hCTR S292A (Homo sapiens, UniProt P30988, S292A).
T1 construct: expressed in transfected cells
T1 sequence (P30988 25-474 S292A): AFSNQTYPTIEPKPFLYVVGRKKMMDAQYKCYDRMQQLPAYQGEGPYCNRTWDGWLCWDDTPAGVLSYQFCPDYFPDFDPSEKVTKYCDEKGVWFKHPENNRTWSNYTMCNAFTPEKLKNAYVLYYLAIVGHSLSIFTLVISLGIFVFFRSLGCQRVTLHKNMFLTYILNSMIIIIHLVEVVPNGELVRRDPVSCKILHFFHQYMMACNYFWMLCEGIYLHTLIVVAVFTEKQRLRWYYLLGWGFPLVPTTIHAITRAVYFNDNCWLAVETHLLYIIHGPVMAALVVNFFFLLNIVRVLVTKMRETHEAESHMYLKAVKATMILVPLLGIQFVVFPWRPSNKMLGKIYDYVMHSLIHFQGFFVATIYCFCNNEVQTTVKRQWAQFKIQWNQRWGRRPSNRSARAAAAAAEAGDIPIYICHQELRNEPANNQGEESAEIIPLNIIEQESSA
Summed up:
(§1)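 30 min ligand stimulation with IBMX present; cells seeded overnight beforehand. Ethanol extract, dried at RT.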

A further assay has as its target T2, hCTR H296A (Homo sapiens, UniProt P30988, H296A).
T2 construct: c-Myc (N); expressed in transfected cells
T2 sequence (P30988 25-474 H296A): T1 sequence (P30988 25-474 S292A) with A268S, H272A
Summed up:
as §1

A further assay concerns the target T3, hCTR Y372A (Homo sapiens, UniProt P30988, Y372A).
T3 construct: c-Myc (N); expressed in transfected cells
T3 sequence (P30988 25-474 Y372A): T1 sequence (P30988 25-474 S292A) with A268S, Y348A
In outline:
as §1

For another assay, the target named is T4, hCTR N365A (Homo sapiens, UniProt P30988, N365A).
T4 construct: c-Myc (N); expressed in transfected cells
T4 sequence (P30988 25-474 N365A): T1 sequence (P30988 25-474 S292A) with A268S, N341A
Summed up:
as §1

The target in a further assay is T5, hCTR L368A (Homo sapiens, UniProt P30988, L368A).
T5 construct: c-Myc (N); expressed in transfected cells
T5 sequence (P30988 25-474 L368A): T1 sequence (P30988 25-474 S292A) with A268S, L344A
In outline:
as §1

Positions count from the first letter of the chain named.

`CC(C)C[C@H](NC(=O)[C@H](CC(N)=O)NC(=O)[C@H](CC(N)=O)NC(=O)[C@H](CO)NC(=O)[C@H](CO)NC(=O)[C@H](CCCNC(=N)N)NC(=O)[C@@H](NC(=O)[C@H](CC(C)C)NC(=O)[C@H](Cc1ccccc1)NC(=O)[C@H](CC(N)=O)NC(=O)[C@H](C)NC(=O)[C@H](CC(C)C)NC(=O)[C@H](CCCNC(=N)N)NC(=O)[C@H](CCC(N)=O)NC(=O)[C@@H](NC(=O)[C@H](C)NC(=O)[C@@H]1CSSC[C@H](NC(=O)[C@@H](N)CCCCN)C(=O)N[C@@H](CC(N)=O)C(=O)N[C@@H]([C@@H](C)O)C(=O)N[C@@H](C)C(=O)N[C@@H]([C@@H](C)O)C(=O)N1)[C@@H](C)O)C(C)C)C(=O)NCC(=O)N1CCC[C@H]1C(=O)N[C@H](C(=O)N[C@@H](CC(C)C)C(=O)N1CCC[C@H]1C(=O)N1CCC[C@H]1C(=O)N[C@H](C(=O)N[C@@H](CC(N)=O)C(=O)N[C@H](C(=O)NCC(=O)N[C@@H](CO)C(=O)N[C@@H](CC(N)=O)C(=O)N[C@H](C(=O)N[C@@H](Cc1ccc(O)cc1)C(N)=O)[C@@H](C)O)C(C)C)[C@@H](C)O)C(C)C` [rAmy]: the Emax (commonly the greatest response seen or fitted, relative to the assay's reference) on hCTR S292A was 95 ± 10%; on hCTR H296A it was 107 ± 18%; at hCTR Y372A, 170 ± 26%; at hCTR N365A, 72 ± 8%; at hCTR L368A, 95 ± 12%.
Turning to `CC(C)C[C@H](NC(=O)[C@H](CCCCN)NC(=O)CNC(=O)[C@H](CC(C)C)NC(=O)[C@@H](NC(=O)[C@@H]1CSSC[C@H](N)C(=O)N[C@@H](CO)C(=O)N[C@@H](CC(N)=O)C(=O)N[C@@H](CC(C)C)C(=O)N[C@@H](CO)C(=O)N[C@@H]([C@@H](C)O)C(=O)N1)C(C)C)C(=O)N[C@@H](CO)C(=O)N[C@@H](CCC(N)=O)C(=O)N[C@@H](CCC(=O)O)C(=O)N[C@@H](CC(C)C)C(=O)N[C@@H](Cc1c[nH]cn1)C(=O)N[C@@H](CCCCN)C(=O)N[C@@H](CC(C)C)C(=O)N[C@@H](CCC(N)=O)C(=O)N[C@H](C(=O)N[C@@H](Cc1ccc(O)cc1)C(=O)N1CCC[C@H]1C(=O)N[C@@H](CCCNC(=N)N)C(=O)N[C@H](C(=O)N[C@@H](CC(N)=O)C(=O)N[C@H](C(=O)NCC(=O)N[C@@H](CO)C(=O)NCC(=O)N[C@H](C(=O)N1CCC[C@H]1C(N)=O)[C@@H](C)O)[C@@H](C)O)[C@@H](C)O)[C@@H](C)O` [sCT], the Emax amounted to 119 ± 12% at hCTR S292A; 86 ± 5% on hCTR H296A; 113 ± 10% on hCTR Y372A; 94 ± 5% on hCTR N365A; 75 ± 7% at hCTR L368A.

The values are drawn from paper PMC5908784, “Extracellular loops 2 and 3 of the calcitonin receptor selectively modify agonist binding and efficacy” (Biochemical Pharmacology, 2018).
